Experimental data as given in patent US9174931B2, “Compositions for the treatment of diabetes and pre-diabetes” (CELLIX BIO PRIVATE LIMITED, priority 2013, dated 2015).
Converted amounts (≈) assume the structure as drawn.

Test: Water solubility of test compounds compared with EPA
Format: physicochemical
Settings: thermodynamic from solid; distilled water added in small portions until clear solution
Protocol: Measurement of the water solubility of the test compound was accomplished by using methods well known to those skilled in the art. Specifically, to a weighed amount of the test compounds of Example-1, Example-2, Example-3 and EPA were taken in separate vials; distilled water was added in small portions until a clear solution was obtained. The water solubility is calculated by dividing the weight of salt, in mg, by the volume of the solution, in mL. The water solubility of the compounds of example-1, example-2, example-3 compared to EPA alone were as follows: […]

| solubility [mg/mL] | SMILES |
| --- | --- |
| 103 (≈ 169 mM) | CC/C=C\C/C=C\C/C=C\C/C=C\C/C=C\CCCC(=O)OCC(C)(C)[C@@H](OC(=O)c1cccnc1)C(=O)NCCC(=O)O [Example-2, amino(3,3-dimethylguanidino)methaniminium 3-((R)-4-((5Z,8Z,11Z,14Z,17Z)-icosa-5,8,11,14,17-pentaenoyloxy)-3,3-dimethyl-2-(nicotinoyloxy)butanamido)propanoate] |
| < 0.3 | CC/C=C\C/C=C\C/C=C\C/C=C\C/C=C\CCCC(=O)O [EPA, Eicosapentaenoic Acid, reference compound] |
| 60 (≈ 119 mM) | CC/C=C\C/C=C\C/C=C\C/C=C\C/C=C\CCCC(=O)OCC(C)(C)[C@@H](O)C(=O)NCCC(=O)O [Example-1, amino(3,3-dimethylguanidino)methaniminium 3-((R)-2-hydroxy-4-((5Z,8Z,11Z,14Z,17Z)-icosa-5,8,11,14,17-pentaenoyloxy)-3,3-dimethylbutanamido) propanoate] |

| SMILES | solubility [mg/mL] |
| --- | --- |
| CC/C=C\C/C=C\C/C=C\C/C=C\C/C=C\CCCC(=O)OCC(C)(C)[C@@H](OC(=O)c1ccccc1OC(=O)c1ccccc1OC(C)=O)C(=O)NCCC(=O)O [Example-3, amino(3,3-dimethylguanidino)methaniminium3-((R)-2-((2-((2-acetoxybenzoyl)oxy)benzoyl)oxy)-4-((5Z,8Z,11Z,14Z,17Z)-icosa-5,8,11,14,17-pentaenoyloxy)-3,3-dimethylbutanamido)propanoate] | 98 (≈ 125 mM) |
